Assay [1] addresses Vps34 (PIK3C3 lipid kinase) (Homo sapiens, UniProt Q8NEB9). The assay can be described thus: Biochemical Vps34 lipid kinase assay (ADP-Glo). The note with it: for IC50: serial half-log dilution 10 μM to 0.3 nM, pIC50 = -log IC50 (M); for VPS34_1microM_% of cntrl / remaining activity at 1 µM: single dose 1 μM compound, residual activity compared to control (DMSO); for remaining activity at 1 µM: 1 h, read-out: VPS34_1microM_% of cntrl. How it is done: Biochemical Vps34 Lipid Kinase Assay
A non-radiometric kinase assay (ADP-Glo™ Assay, Promega, Madison, Wi, USA) was used for measuring the kinase activity of the PIK3C3 lipid kinase. All kinase assays were performed in 96-well half-area microtiter plates in a 25 μl reaction volume. The reaction cocktail was pipetted in 3 steps in the following order: • 10 μl of ATP solution (in assay buffer, see below) • 5 μl of test sample in 5% DMSO 10 μl of enzyme/substrate mixture
All lipid kinase assays contained 50 mM HEPES (4-(2-hydroxyethyl)-1-piperazineethanesulfonic acid)-NaOH, pH 7.5, 1 mM EGTA ((ethylene glycol tetraacetic acid), 100 mM NaCl, 0.03% CHAPS (3-[(3-Cholamidopropyl)dimethylammonio]-1-propanesulfonate), 2 mM DTT (Dithiothreitol), 20 μM ATP (corresponding to the apparent ATP-Km), kinase (7.6 nM) and substrate (50 μM). The assay for PIK3C3 additionally contained 3 mM MnCl2.
The reaction cocktails were incubated at 30° C. for 60 minutes. The reaction was stopped with 25 μl ADP-Go™ reagent per well. Plates were incubated for 40 minutes at room temperature, followed by addition of 50 μl kinase detection reagent per well and incubation for 60 minutes at room temperature. Signal was determined with a microplate luminescence reader (Victor, Perkin Elmer). The assay was either performed using a single dose of compound (1 μM final concentration in the assay reaction) with resulting data expressed as residual activity compared to control (DMSO), or using a serial (half-log) dilution of compounds starting at 10 μM and down to 0.3 nM (final concentrations in the assay) with data expressed as the pIC50.
(§1) (pIC50 is −log IC50 where IC50 represents the concentration expressed in M at which the test compound gives 50% inhibition)
A general note: In ADP-Glo the light output rises with the ADP produced.

For assay [2], the target named is T1, EF2K (Homo sapiens, UniProt O00418).
T1 construct: host or cells: LN-229 cell lysate
T1 sequence (O00418 1-725): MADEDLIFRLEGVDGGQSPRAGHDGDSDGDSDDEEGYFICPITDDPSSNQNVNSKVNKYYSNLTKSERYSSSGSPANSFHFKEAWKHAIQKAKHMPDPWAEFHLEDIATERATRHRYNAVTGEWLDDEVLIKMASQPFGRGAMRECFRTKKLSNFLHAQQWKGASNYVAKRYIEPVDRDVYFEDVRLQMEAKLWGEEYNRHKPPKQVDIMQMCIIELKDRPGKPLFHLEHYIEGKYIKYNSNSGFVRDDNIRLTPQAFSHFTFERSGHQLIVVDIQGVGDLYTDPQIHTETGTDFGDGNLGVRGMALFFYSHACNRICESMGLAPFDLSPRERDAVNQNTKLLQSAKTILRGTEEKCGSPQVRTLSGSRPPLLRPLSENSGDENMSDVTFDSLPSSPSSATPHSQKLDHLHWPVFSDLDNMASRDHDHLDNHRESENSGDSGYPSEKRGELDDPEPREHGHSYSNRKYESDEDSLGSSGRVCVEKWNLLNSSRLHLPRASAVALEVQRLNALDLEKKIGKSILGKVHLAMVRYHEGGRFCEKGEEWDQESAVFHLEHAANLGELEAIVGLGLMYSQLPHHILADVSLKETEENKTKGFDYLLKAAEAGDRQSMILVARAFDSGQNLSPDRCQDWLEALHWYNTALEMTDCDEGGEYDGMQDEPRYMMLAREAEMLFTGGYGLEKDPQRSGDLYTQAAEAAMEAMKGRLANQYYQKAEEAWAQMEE
The assay can be described thus: EF2K cell-based assay (P-EF2 AlphaLISA, 2-deoxyglucose stimulated MCF10A cells). The note with it: 2.5 mM 2-deoxyglucose stimulated, P-EF2 Thr56, pIC50 = -log IC50 (M), read-out: eEF2K_C_PThr56 pIC50 (converted). How it is done: In this assay, 2.5 mM 2-deoxyglucose was used to deplete intracellular ATP and activate 5′ adenosine monophosphate-activated protein kinase (AMPK) in the immortalized epithelial breast cell lines, MCF10A. MCF 10A cells were purchased from ATCC (CRL-10317).
MCF10A cells are seeded at a density of 1.25×10^5 Cells/ml at 100 μl/well in a 96-well plate and incubated for 24 hours (37° C., 5% CO2). Compound is added for 1 hour, and cell are stimulated with 2.5 mM of 2-deoxy-glucose for 4 hours. Medium is then removed, and cells are lysed in an ice-cold buffer M-PER (Thermo Scientific, 78501), containing protease and phosphatase inhibitors. P-EF2 levels are determined in these lysates using the P-EF2 AlphaLISA described above.
as §1
(Bead proximity is the source of the signal in Alpha formats.)

Assay [3] addresses T1, EF2K. The assay can be described thus: Biochemical EF2K lysate-based kinase assay (AlphaLISA p-eEF2 Thr56). Particulars: pIC50 = -log IC50 (M), read-out: eEF2K_C_alphalisa pIC50 (converted).
Description: Biochemical EF2K Lysate-Based Kinase Assay
LN-229 cells were purchased from ATCC (CRL-2611); these are glioblastoma cells. Cell lysates from LN229 were used in this kinase assay to provide both the kinase and the substrate (EF2). The AlphaLISA p-eEF2 (Thr56) detection assay was developed using a sandwich assay format with two specific antibodies recognizing different epitopes of the target, including one antibody against the phosphorylation site of interest. One anti-eEF2 antibody was conjugated onto AlphaLISA Acceptor beads, while the second antibody was biotinylated and captured by streptavidin coated Donor beads.
Compound was mixed with LN-229 cell lysates in the presence of a kinase buffer (e.g. HEPES) at a pH of 6.6, containing 10 mM Mg^2+ (e.g. magnesium acetate) and 10 mM adenosine-tri-phosphate (ATP) and incubated at room temperature for 15 minutes. The kinase reaction was stopped with excess ethylenediaminetetraacetic acid disodium salt and the biotinylated-anti phospho eEF2 antibody (3 nM) was added for 1 hour. Then the anti-EF2 acceptor beads (10 μg/ml) as well as the streptavidin coated donor beads (20 μg/ml) were added for 1 hour, and the AlphaLISA signal was measured in an Envision instrument once, left overnight, and measured again for the final read.
as §1

Sequence of Vps34 (PIK3C3 lipid kinase) (Q8NEB9 whole entry, species assumed): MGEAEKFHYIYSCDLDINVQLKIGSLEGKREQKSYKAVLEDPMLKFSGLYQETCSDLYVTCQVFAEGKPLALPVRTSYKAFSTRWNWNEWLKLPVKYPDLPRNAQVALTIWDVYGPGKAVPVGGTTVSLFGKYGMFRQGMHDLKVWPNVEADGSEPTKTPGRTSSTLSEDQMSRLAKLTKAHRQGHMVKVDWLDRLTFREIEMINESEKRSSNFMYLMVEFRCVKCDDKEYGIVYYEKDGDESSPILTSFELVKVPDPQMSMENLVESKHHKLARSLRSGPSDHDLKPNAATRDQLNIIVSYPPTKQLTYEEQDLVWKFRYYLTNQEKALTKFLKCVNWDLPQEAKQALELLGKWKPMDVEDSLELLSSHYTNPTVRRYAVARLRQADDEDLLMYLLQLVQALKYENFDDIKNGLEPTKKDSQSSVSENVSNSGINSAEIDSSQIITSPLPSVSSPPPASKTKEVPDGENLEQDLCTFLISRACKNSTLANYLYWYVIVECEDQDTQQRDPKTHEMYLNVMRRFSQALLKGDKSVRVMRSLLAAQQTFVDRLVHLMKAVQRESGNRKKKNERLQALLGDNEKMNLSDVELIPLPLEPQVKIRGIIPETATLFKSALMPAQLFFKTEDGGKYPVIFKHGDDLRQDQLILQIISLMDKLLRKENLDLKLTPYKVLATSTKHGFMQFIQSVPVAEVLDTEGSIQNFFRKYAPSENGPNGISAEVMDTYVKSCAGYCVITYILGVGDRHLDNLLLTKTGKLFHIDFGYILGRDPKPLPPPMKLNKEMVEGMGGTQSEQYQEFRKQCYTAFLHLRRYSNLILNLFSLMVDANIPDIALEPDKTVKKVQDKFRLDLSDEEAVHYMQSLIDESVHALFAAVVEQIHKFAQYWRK

On to `CN1CCCN(C)c2ccc(cn2)-c2ccnc(n2)Nc2cccc(c2)CN2CCN(CC1=O)CC2COCCO` (single isomer, unassigned) [Compound 105], for which the IC50 in assay [1] is 9.77e-07 M; in assay [2], 1.78e-05 M; in assay [3], 8.71e-08 M. In addition, the VPS34_1microM_% of cntrl in assay [1] is 28.59 % of cntrl.
For the compound `CC1CN2CCN1CC(=O)NCCCNc1ccc(cn1)-c1ccnc(n1)Nc1cccc(c1)C2` (single isomer, unassigned) [Compound 136], the values for the IC50 in assay [1], in assay [2] and in assay [3] were 1.66e-08 M, about 8.51e-06 M and 1.45e-07 M, respectively. In addition, the VPS34_1microM_% of cntrl in assay [1] is listed as 3.08 % of cntrl.
The matching figures for `CC1CN2CCN1CC(=O)NCCCNc1ccc(cn1)-c1ccnc(n1)Nc1cccc(c1)C2` (single isomer, unassigned) [Compound 137]: 8.13e-08 M, over 3.02e-05 M, 1.95e-06 M and 8.17 % of cntrl.
As to `CN1CCCN(C)c2ccc(cn2)-c2ccnc(n2)Nc2cccc(c2)CN2CCN(CC2)CC1=O` [Compound 1], the IC50 in assay [1] is 1.55e-06 M; in assay [2] it was 2.95e-06 M; in assay [3] it was 7.59e-08 M.
As to `O=C1CN2CCN(CC2)Cc2cc(ccc2F)Nc2nccc(n2)-c2ccc(nc2)NCCCN1` [Compound 2], in assay [1], the remaining activity at 1 µM turned out to be 4.44%. Also, the figures for the IC50 in assay [1], in assay [2] and in assay [3] were 1e-07 M, 5.75e-06 M and 6.31e-08 M, respectively.
As to `O=C1CN2CCN(CC2)Cc2ccc(F)c(c2)Nc2nccc(n2)-c2ccc(nc2)NCCCN1` [Compound 3], the remaining activity at 1 µM in assay [1] was found to be 4.43%. The IC50 in assay [1] was 6.76e-08 M; in assay [2] it was over 3.02e-05 M; in assay [3], 1.66e-06 M.
`O=C1CN2CCN(CC2)Cc2cccc(c2F)Nc2nccc(n2)-c2ccc(nc2)NCCCN1` [Compound 4]: the remaining activity at 1 µM in assay [1] is 29.3%. The IC50 in assay [1] is 4.79e-07 M; in assay [2], 8.71e-06 M; in assay [3], 8.32e-08 M.
`O=C1CN2CCN(CC2)Cc2cc(F)cc(c2)Nc2nccc(n2)-c2ccc(nc2)NCCCN1` [Compound 5]: in assay [1], the remaining activity at 1 µM is 7.3%. The IC50 in assay [1] was 6.92e-08 M; in assay [2], 2.51e-05 M; in assay [3], 7.59e-07 M.
Take `CN1CCCN(C)c2ccc(cn2)-c2ccnc(n2)Nc2cc(F)cc(c2)CN2CCN(CC2)CC1=O` [Compound 6]: in assay [1], the remaining activity at 1 µM came out at 17.4%. In addition, the IC50 in assay [1] is 2.51e-07 M; in assay [2], 2.45e-05 M; in assay [3] it was 6.61e-07 M.
For the compound `Cc1cc2cc(c1)Nc1nccc(n1)-c1ccc(nc1)NCCCNC(=O)CN1CCN(CC1)C2` [Compound 7], the remaining activity at 1 µM in assay [1] is 15.1%. Moreover, the IC50 in assay [1] is 1.58e-07 M; in assay [2], over 3.02e-05 M; in assay [3], 1.38e-05 M.
In the case of `Cc1cc2cc(c1)Nc1nccc(n1)-c1ccc(nc1)N(C)CCCN(C)C(=O)CN1CCN(CC1)C2` [Compound 8], the remaining activity at 1 µM in assay [1] amounted to 41.1%. Also, the IC50 in assay [2] was over 3.02e-05 M; in assay [3], 1.41e-05 M.
Consider `O=C1CN2CCN(CC2)Cc2cc(Cl)cc(c2)Nc2nccc(n2)-c2ccc(nc2)NCCCN1` [Compound 9], for which the remaining activity at 1 µM in assay [1] stood at 8.43%. For the same compound, the IC50 in assay [1] is 9.77e-08 M; in assay [2], over 3.02e-05 M; in assay [3], about 6.03e-06 M.
Regarding `CN1CCCN(C)c2ccc(cn2)-c2ccnc(n2)Nc2ccc(C(N)=O)c(c2)CN2CCN(CC2)CC1=O` [Compound 10], the remaining activity at 1 µM in assay [1] was 10.8%. In addition, the IC50 in assay [1] is 2.88e-07 M; in assay [2] it was 1.29e-05 M; in assay [3], 3.63e-07 M.
For `CN1CCCN(C)c2ccc(cn2)-c2ccnc(n2)Nc2ccc(C(=O)O)c(c2)CN2CCN(CC2)CC1=O` [Compound 11], in assay [1], the remaining activity at 1 µM turned out to be 33.3%. The IC50 was over 3.02e-05 M in assay [2] and 4.57e-07 M in assay [3].
Consider `CNC(=O)c1ccc2cc1CN1CCN(CC1)CC(=O)N(C)CCCN(C)c1ccc(cn1)-c1ccnc(n1)N2` [Compound 12], for which the remaining activity at 1 µM in assay [1] was found to be 7.68%. In addition, the results for the IC50 in assay [1], in assay [2] and in assay [3] were 4.37e-07 M, 1.05e-05 M and 2.09e-07 M, respectively.

(Values after patent US10017509B2, “Macrocylic pyrimidine derivatives” (Janssen Pharmaceutica NV, priority 2014, dated 2018).)
